Results as given in patent publication US8367620B2, “Peptidic growth hormone secretagogues analog compounds and preparations thereof” (Centro de Ingenieria Genetica y Biotecnologia, priority 2006, dated 2013).
pIC50: −log10 of the molar value.

Legend:
[1] = tested on: Litopenaeus vanamei post-larvae; experiment: Growth of shrimp post-larvae fed Artemia-bioencapsulated compounds; format: in vivo; settings: Artemia bioencapsulated (10 mh/L, one hour), fed four times a day for one month
Protocol: The peptidic GHS analogs were bioencapsulated in Artemia to be fed to Litopenaeus vanamei post-larvae. For the encapsulation the compounds were added in a 10 mh/L left for an hour, harvested and washed. The animals were fed four times a day for one month while the control group was fed with BSA encapsulated Artemia The effect was measured with an optical micrometer and weighing the animals in a 0.1 mg precision scale.

IGF-I mRNA = IGF-I mRNA in liver and GH level of intraperitoneally injected tilapias; format: in vivo, tilapia; settings: liver of intraperitoneally injected tilapias
Protocol: IGF-I mRNa was determined in the liver of intraperitoneally injected tilapias monitoring also the GH level time course, showing the peptidic GHS analog compounds as able to stimulate in fish the GH levels in the bloodstream and at incrementing the IGF-I mRNA levels after the injection of the compounds as shown in table 4.

tilapias = experiment: Growth acceleration on juvenile tilapias treated intraperitoneally; format: in vivo; settings: juvenile tilapia, ip 0.1 μg/g twice a week, three weeks
Protocol: The compounds were dissolved in a sodium phosphate (PBS) buffer solution and injected twice a week, during three weeks at 0.1 μg/g of humid fish weight (gbw). Compounds were applied individually to a group of 10 male tilapias with an average weight of 60.41±10.36 g and a control group with an average weight of 60.58±19.67 g was receiving PBS only as a control, measuring the average weight every week, all animals in the experiment were labelled with microchips (Stoelting Co. Wood Dale, USA.). for proper identification.

[2] = tested on: tilapia Oreochromis sp. larvae; experiment: Growth stimulation of tilapia larvae by immersion; format: in vivo; settings: immersion 100 μg/L, one hour twice a week, three weeks
Protocol: (§1) Growth stimulation experiments on tilapia Oreochromis sp. larvae were performed evaluating groups of 100 larvae with 0.01 g average, using the peptidic GHS analogs, in a 100 μg/L concentration, twice a week using an immersion time of one hour.

[3] = tested on: primary cultures of granular cerebellum cells; format: cell-based, Wistar rats; settings: 500 μM hydrogen peroxide, rat cerebellum granular cells; read-out: IC50 during the induced neuronal damage by Hydrogen Peroxide addition to a primary culture of neurons
Protocol: Primary cultures of granular cerebellum cells were obtained from 7-9 days Wistar rats. After a rapid dissection, rat cerebellums were submerged in a cold solution and meningeal membranes were removed, each organ was transferred to a 2-3 ml fresh medium solution and finely sliced. Cells were dissociated using a Pasteur pipette and filtered through a nylon […] membrane (Falcon, Franklin Lakes, N.J.). The number of viable cells was determined by cell counting in a hematocytometer with tripan blue as a marker. Cells were cultured on polylysine covered 96 well plates at a density of 6250 cells in […] final volume. Cultures were kept at 37° C. in 5%. CO2 after 24 h, 10 μM of cytosine arabinofuranose (AraC; Sigma) was added to inhibit the proliferation of non-neuronal cells. The capacity of neural damage prevention was tested adding 500 μM hydrogen peroxide in different concentrations of peptidic GHS analog compounds, Cell survival was determined using the Promega non-radioactive cytotoxicity proliferation assay, Cell Titer 96 (Promega).

[4] = tested on: Post-larvae of Litopenaeus vanamei; experiment: Growth stimulation in shrimps by dietary supplementation; format: in vivo; settings: compound at 1% in post-larvae crustacean diet
Protocol: The peptidic GHS analogs were included at 1% in a post-larvae crustacean diet. Post-larvae of Litopenaeus vanamei were fed with the aforementioned diet in parallel with a control group with 1% BSA addition. The effect was measured with an optical micrometer and weighing the animals in a 0.1 mg precision scale.

PC12 cells = format: cell-based; settings: differentiated PC12 cells, 72 h incubation, MTT; read-out: IC50 during the NGF deprivation induced neuronal death
Protocol: PC12 cells were stored in 75 cm^2 culture flasks on DMEM containing 5% bovine foetal serum and 10% horse serum, with 50 μg/ml gentamicin. Cells were incubated at 37° C. in 5% CO2. To induce differentiation cells were transferred at a density of 1×10^4 to polylysine covered 96 well plates in NGF supplemented DMEM media for 7 days, with medium replacement every 2-3 days. After differentiation cells were incubated with peptidic GHS analog compounds, at different concentrations for 72 h. Cell survival and proliferation was determined using the Promega non-radioactive cytotoxicity proliferation assay, Cell Titer 96, based in the conversion of 3-(4,5-dimethylthiazole-2-yl)-2,5-diphenyltetrazolium bromide (MTT) in to a spectrophotometrically detectable product. After deprivation of NGF medium is removed and 15 μl of the DMEM dissolved dye is added, after 4 hours of 37° C. incubation 100 μl of the stopping solution is added and absorbance is measured at 570 nm

Litopenaeus vanamei = experiment: Growing of shrimp larvae by dipping in solution of the compounds; format: in vivo; settings: four dips of one hour every three days, 0.1 g/L
Protocol: Shrimp larvae were subjected two four dips, for one hour every three days with different peptidic GHS analogs at 0.1 g/L. The control group was subjected to the same frequency of dipping with 1 mg/L BSA.

lysozyme = experiment: Lysozyme levels in tilapia larvae treated by immersion; format: in vivo, Oreochromis sp.; settings: immersion 100 μg/L
Protocol: as §1
During this experiment lysozyme levels were also monitored and an increase of this immunity marker was obtained in the treated animals as shown in table 8.

Row | Sequence | Size Inc. (%), control group growing = 100% [1] [%] | Normalized IGF-I mRNA levels to a non related synthetic peptide control group (IGF-I mRNA) | Weight Inc. (%), control group growing = 100% (tilapias) [%] | Weight Inc. (%), control group growing = 100% [2] [%] | pIC50 [3] | Size Inc. (%), control group growing = 100% [4] [%] | pIC50 (PC12 cells) | Size Inc. (%), control group growing = 100% (Litopenaeus vanamei) [%] | Weight Inc. (%), control group growing = 100% (Litopenaeus vanamei) [%] | Lysozyme levels of the treated animals relative to the control group (lysozyme)
1 | ALDFKPNIP [Compound A225, L-amino acid peptide with internal side-chain cycle, SEC; ID NO: 5] | 130.0 | 1.38 | 120.0 | 98.0 | 5.40 | 130.0 | 5.39 | 112.6 | 121.0 | 1.43
2 | GDAGAKLLSSR [Compound A234] | 135.0 | 1.17 | 110.6 | 120.6 | 5.43 | 138.6 | 5.23 | 114.2 | 123.6 | 2.77
3 | GEGYKLDERSQ [Compound A236, L-amino acid peptide with internal side-chain cycle, SEC; ID NO: 16] | 138.0 | 1.13 | 99.0 | 105.0 | 5.48 | 137.0 | 5.52 | 112.0 | 121.0 | 1.42
4 | GGEAGKLCPPRY [Compound A237, L-amino acid peptide with internal side-chain cycle, SEC; ID NO: 17] | 136.0 | 1.201 | 100.0 | 109.9 | 5.60 | 132.0 | 5.48 | 116.2 | 127.0 | 1.01
5 | GGGKFWDIPHH [Compound A231, L-amino acid peptide with internal side-chain cycle, SEC; ID NO: 11] | 140.2 | 1.39 | 150.2 | 151.0 | 5.46 | 140.1 | 5.40 | 123.0 | 130.0 | 1.89
6 | GKFDSPEHQ [Compound A230] | 140.0 | 1.48 | 158.0 | 150.0 | 5.42 | 140.0 | 5.39 | 123.6 | 150.0 | 1.33
7 | GLEFKLLHQ [Compound A238, L-amino acid peptide with internal side-chain cycle, SEC; ID NO: 18] | 140.0 | 1.24 | 129.4 | 112.6 | 6.00 | 130.1 | 5.69 | 117.9 | 129.2 | 1.33
8 | GMEAGIKLCHRQ [Compound A235, L-amino acid peptide with internal side-chain cycle, SEC; ID NO: 15] | 134.2 | 0.9 | 89.9 | 90.0 | 6.00 | 137.0 | 5.69 | 112.5 | 121.0 | 1.90
9 | HAKPGGIDPEQ [Compound A229, L-amino acid peptide with internal side-chain cycle, SEC; ID NO: 9] | 140.0 | 1.09 | 126.5 | 125.0 | 5.88 | 140.0 | 5.47 | 115.9 | 126.1 | 1.15
10 | HCKFDLDWH [Compound A223, L-amino acid peptide with internal side-chain cycle, SEC; ID NO: 3] | 132.0 | 1.40 | 105.0 | 102.0 | 5.61 | 131.6 | 5.51 | 110.9 | 120.0 | 1.52
11 | HGSKFDLEFG [Compound A222, L-amino acid peptide with internal side-chain cycle, SEC; ID NO: 2] | 130.3 | 1.115 | 96.2 | 96.0 | 5.89 | 131.0 | 5.69 | 112.2 | 121.0 | 1.43
12 | HKGIDSPEQH [Compound A232] | 139.6 | 1.23 | 160.1 | 148.3 | 5.48 | 139.7 | 5.31 | 123.0 | 132.8 | 2.41
